Measurements: patent publication US12280046B2, “Melanocortin subtype-2 receptor (MC2R) antagonist for the treatment of disease” (Crinetics Pharmaceuticals, Inc., priority 2021, dated 2025)

Legend:
[1] = system: corticosterone and adrenal gland hypertrophy; assay: Continuous pump-administration of ACTH(1-24) in male rats, 7 days of daily oral dosing; type: in vivo, rat
Protocol: Exogenous ACTH(1-24) (100 μg/kg/day) was administered to male rats via subcutaneously implanted osmotic pumps. The ability of repeated daily oral administration of Compound 1 to suppress corticosterone over 7 days was evaluated.

[2] = system: ACTH-stimulated corticosterone secretion; assay: Single oral dose ACTH challenge test in rats; type: in vivo, rat; settings: for suppression of corticosterone: 1 μg/kg IV ACTH(1-24), vs vehicle
Protocol: (§1) The pharmacodynamic (PD) effects of Compound 1 were examined in rat by evaluating suppression of the corticosterone (cortisol in humans) response induced by administration of ACTH.
(§2) The ability of a single oral dose of Compound 1 to suppress corticosterone over 2 hours in response to an ACTH challenge test was assessed in male and female rats. Acute, IV administration of 1 μg/kg ACTH(1-24) induced a robust rise in plasma corticosterone levels compared to baseline in male and female rats.

[3] = Single oral dose ACTH challenge test in rats; type: in vivo, rat; settings: rat, in vivo, male rats, at minimum effective dose 3 mg/kg oral
Protocol: as §1, §2

[4] = Phase 1 MAD study, pharmacokinetics, 40 mg daily over 10 days; type: in vivo, human
Source text: (§3) This Phase 1, first-in-human, double-blind, randomized, placebo-controlled study will evaluate the safety of Compound 1 in healthy volunteers as well as the relationship between exposure and pharmacodynamic (PD) parameters, including ACTH-stimulated and endogenous cortisol secretion measured in blood, saliva, and urine. Results will be used to inform endpoints and other parameters in future later studies in patients with Cushing's disease (CD) or other diseases of excess adrenocorticotropic hormone (ACTH), including Congenital Adrenal Hyperplasia (CAH) and Ectopic ACTH Syndrome (EAS).
(§4) MAD/Part 2: multiple ascending dose, randomized, placebo-controlled, double-blind; 2 planned and up to 4 total cohorts (n=36). In each cohort, 6 subjects will receive Compound 1, 3 subjects will receive the placebo. The doses will not exceed the doses in the SAD.
Pharmacokinetic results for Day 1 and Day 10 from the MAD study using a 40 mg daily dose of Compound 1 over 10 days are shown in FIG. 12. Data shown are mean±SEM. […] The mean half-life was ˜30 hours.

[5] = system: basal and ACTH-stimulated cortisol; assay: Phase 1 MAD study, basal and ACTH-stimulated cortisol; type: in vivo, human
Source text: as §3, §4
Starting on Day −1 until EOS (or ET), fasting pre-dose blood samples are collected <15 minutes prior to dosing for measurement of serum cortisol, A4, 17-OHP, aldosterone, ACTH(1 39), renin, and DHEAS. […] Cosyntropin is then administered (250 mcg in the “high dose” test; 1 mcg in the “low dose” test) to define time 0 of the ACTH-stimulation test. […]
At Screening and on Days 2, 3, 5, 6, 7, 8, 10, 11, and 12, fasting blood samples are collected for measurement of serum cortisol at 4 hours (15 minutes) post-dose (˜1200 hr). On Days in which the ACTH-stimulation test is conducted, this collection will be 120 min post-cosyntropin administration such that post-cosyntropin cortisol collection times are Time 30 minutes (5 minutes), Time 60 minutes (5 minutes), and Time 120 minutes (5 minutes).
A 24-hour blood biomarker profile is measured starting Day −1 until Day 1 pre-dose, Day 1 post-dose until Day 2 pre-dose, Day 4 post-dose until Day 5 pre-dose, and Day 9 post-dose until Day 10 pre-dose.

[6] = system: basal and ACTH-stimulated cortisol; assay: Phase 1 SAD study, basal cortisol and ACTH-stimulation test; type: in vivo, human; settings: for % suppression in cortisol AUC: high dose ACTH (250 mcg) challenge
Source text: as §3
SAD/Part 1: ascending single dose, randomized, placebo-controlled, double-blind; 5 planned and up to 8 total cohorts, n=64. In each cohort, 6 subjects will receive Compound 1, 2 subjects will receive the placebo. Doses will escalate from 10 mg in cohort 1 to no more than 250 mg.
ACTH-stimulation tests are conducted while fasting. For PD analyses, blood samples are collected for measurement of serum cortisol, A4, 17-OHP, aldosterone, and DHEA. A summary of the procedure is as follows: In the “high dose” test, each subject is administered an IV 250 μg dose (for subjects >37 lbs) of cosyntropin (ACTH(1-24)) at the start of each test; in the “low dose” test, 1 mcg is administered instead. At 2 hours after study drug dosing/Time 0 (±5 minutes), collect blood sample. Within 5 minutes, administer cosyntropin IV infusion over 2 minutes. Collect blood sample at Time 30 minutes (5 minutes). Collect blood sample at Time 60 minutes (5 minutes).
Starting on Day −1 until EOS (or ET), fasting pre-dose blood samples are collected <15 minutes prior to dosing (˜0800 hr) for measurement of serum cortisol, A4, 17-OHP, aldosterone, ACTH(1 39), renin, and DHEAS. On Days in which ACTH-stimulation tests are conducted, these tests are done approximately 2 hours post-study drug dosing. Prior to cosyntropin administration, at 2 hours (15 minutes) post-dose, blood samples are collected for measurement of cortisol, A4, 17-OHP, aldosterone, and DHEA. Cosyntropin is then administered to define time 0 of the ACTH-stimulation test. At 2.5 hours (15 minutes) post-dose/30 minutes post-cosyntropin, blood samples are collected for measurement of cortisol. At 3 hours (15 minutes) post-dose/60 minutes post-cosyntropin, blood samples are collected for measurement of cortisol, A4, 17-OHP, aldosterone, and DHEA.
Compound 1 was also evaluated in the context of an ACTH-Stimulation Test, with oral Compound 1 or placebo being administered prior to the intravenous (IV) administration of cosyntropin (ACTH(1-24)). In the absence of pharmacologic intervention, IV administration of ACTH leads to the secretion of cortisol; whereas the pharmacologic intervention can suppress secretion of […] cortisol levels.

[7] = target: T1, MC4R (Homo sapiens, UniProt P32245); assay: Commercially available MC4R membrane binding assay; settings: greater than highest concentration tested
T1 construct: purchased
T1 sequence (P32245 whole entry): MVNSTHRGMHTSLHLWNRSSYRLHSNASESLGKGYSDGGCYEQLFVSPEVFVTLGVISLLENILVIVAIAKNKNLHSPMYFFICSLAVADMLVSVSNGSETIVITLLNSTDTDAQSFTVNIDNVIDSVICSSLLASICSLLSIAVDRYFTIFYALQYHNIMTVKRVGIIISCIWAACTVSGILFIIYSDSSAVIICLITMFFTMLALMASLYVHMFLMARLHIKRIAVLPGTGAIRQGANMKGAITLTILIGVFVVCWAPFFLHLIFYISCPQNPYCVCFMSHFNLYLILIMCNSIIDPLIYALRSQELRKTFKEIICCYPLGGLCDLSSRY
Protocol: The selectivity over other human MCR subtypes was evaluated using commercially available MC1R, MC3R, MC4R, and MCSR membrane binding assays. The half maximal inhibitory concentration in the binding assays (IC50) were determined to be greater than the highest concentration tested, or >10,000 nM, >1000 nM, >10,000 nM and >1000 nM for MC1R, MC3R, MC4R and MCSR, respectively. Compound 1 is >2900-fold selective for MC2R versus the other human MCRs.

Cmax [3]: 149 ng/mL
AUC(0-t) ([3]; read-out: AUC up to the last measurable concentration (AUC0-t)): 1400 ng·h/mL
accumulation with chronic dosing, higher than projected from SAD study results ([4]; 40 mg daily over 10 days): approximately 2.4 fold
half-life ([4]; human, in vivo, oral, 40 mg daily over 10 days): ~30 h
IC50 [7]: > 10 µM
SMILES: CCOc1ccccc1-c1ccc(N2CCN(C(=O)C3(C(F)(F)F)CCC3)C[C@H]2CC)c(C(=O)N[C@@H]2CN3CCC2CC3)n1 [Compound 1, 6-(2-ethoxyphenyl)-3-((R)-2-ethyl-4-(1-(trifluoromethyl)cyclobutane-1-carbonyl)piperazin-1-yl)-N—((S)-quinuclidin-3-yl)picolinamide]
adrenal gland hypertrophy (adrenal gland weight and adrenal cortical area) ([1]; 10 and 30 mg/kg/day vs vehicle): ameliorated adrenal gland hypertrophy
corticosterone ([1]; ≥10 mg/kg/day, 1 hour post-dose on Day 1 and Day 7): dose-dependently suppressed
suppression of corticosterone ([2]; female rats, 1 mg/kg oral): 51%
suppression of corticosterone ([2]; female rats, 3 mg/kg oral): 71%
suppression of corticosterone ([2]; female rats, 10 mg/kg oral): 88%
dose with statistically significant suppression of corticosterone ([2]; female rats, oral): ≥ 1 mg/kg
ACTH-stimulated corticosterone secretion ([2]; male and female rats, oral): dose-dependently suppressed
suppression of corticosterone ([2]; male rats, 3 mg/kg oral): 62%
suppression of corticosterone ([2]; male rats, 10 mg/kg oral): 78%
dose with statistically significant suppression of corticosterone ([2]; male rats, oral): ≥ 3 mg/kg
minimum effective dose ([2]; male rats, oral, 1 μg/kg ACTH-stimulated acute assay): 3 mg/kg
Day 1 PK profile and exposures ([4]; 40 mg, Day 1): comparable to the 40 mg single dose from the SAD study
basal and ACTH-stimulated cortisol secretion ([5]; 4 h post-dose throughout the MAD study): suppressed basal and ACTH-stimulated cortisol secretion
basal unstimulated cortisol ([5]; at 24 hours (before the next dose)): suppression of basal unstimulated cortisol was not observed
basal and ACTH-stimulated cortisol levels ([5]; high dose ACTH-stimulation test, after 10 days of dosing): suppressed basal and ACTH-stimulated cortisol levels
% suppression in cortisol AUC ([6]; 10 mg): about 9%
% suppression in cortisol AUC ([6]; 20 mg): about 22%
% suppression in cortisol AUC ([6]; 40 mg): about 36%
acute reduction of basal cortisol ([6]; 80 mg, 2 hours after administration): 56%
% suppression in cortisol AUC ([6]; 80 mg): about 41%
reduction in cortisol levels ([6]; 80 mg, low dose ACTH (1 mcg) stimulation challenge): 48%
